Data as given in US7947854B2, “Bis-cationic compounds and use thereof” (The University of Sydney, priority 2003, dated 2011).
≈ marks a conversion by molar mass, not a printed value.

Columns and labels:
Type in all cases: cell-based
[1] = system: Cryptococcus neoformans ATCC 90112; experiment: Antifungal susceptibility testing, microdilution MIC; conditions: Table 6; no visible growth after 72 h at 35° C.; read-out: MIC C. neof. ATCC 90112
In short: (§1)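 Standard microdilution method, run in duplicate, using serial dilutions of cationic compounds.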

[2] = system: Candida albicans ATCC 10231; experiment: as above; conditions: Table 6; no visible growth after 48 h at 35° C.; read-out: MIC C. albicans ATCC 10231
In short: as §1

[3] = system: Scedosporium apiospermum 1-003-056; experiment: In vitro antifungal activity, filamentous fungi, NCCLS M38-A
From the text: (§2) The assay used for filamentous fungi (Aspergillus; Scedosporium; Fusarium) was that published by the National Committee for Clinical Laboratory Standards. 2002. Reference Method for Broth Dilution Antifungal Susceptibility Testing of Filamentous Fungi: Approved Standard. NCCLS document M38-A.Villanova, Pa., USA.

[4] = system: Aspergillus fumigatus ATCC 204 305; experiment: as above
From the text: as §2

[5] = system: Aspergillus terreus ATCC 03-232-378; experiment: as above
From the text: as §2

[6] = system: Aspergillus flavus ATCC 204 304; experiment: as above
From the text: as §2

[7] = system: Scedosporium prolificans 1-003-040; experiment: as above
From the text: as §2

[8] = system: Fusarium solani 04-132-4207; experiment: as above
From the text: as §2

[9] = system: Cryptococcus neoformans ATCC 90112; experiment: In vitro antifungal activity, yeasts, NCCLS M27-A; conditions: Table 9
From the text: (§3) The assay used for yeasts (Candida; Cryptococcus) is that of the National Committee for Clinical Laboratory Standards. 1997. Reference Method for Broth Dilution Antifungal Susceptibility Testing of Yeasts: Approved Standard. NCCLS document M27-A.Villanova, Pa., USA as published in Ghannoum, M. A., A. S. Ibrahim, Y. Fu, M. C. Shafiq, J. E Edwards, Jr. and R. S. Criddle. 1992. Susceptibility testing of Cryptococcus neoformans: A microdilution technique. J. Clin. Microbiol. 30:2881-2886.

[10] = system: Candida albicans ATCC 10231; experiment: In vitro antifungal activity, yeasts, NCCLS M27-A; conditions: Table 9
From the text: as §3

SMILES: C[C@@H]1[C@H](O)[C@@H](C)/C=C/C=C/C=C/C=C/C=C/C=C/C=C/[C@H](O[C@@H]2O[C@H](C)[C@@H](O)[C@H](N)[C@@H]2O)C[C@@H]2O[C@](O)(C[C@@H](O)C[C@@H](O)[C@H](O)CC[C@@H](O)C[C@@H](O)CC(=O)O[C@H]1C)C[C@H](O)[C@H]2C(=O)O [Amphotericin B, reference compound]
- MIC [1]: 0.55 µM (≈ 0.508 µg/mL)
- MIC [2]: 1.1 µM (≈ 1.02 µg/mL)
- MIC [3]: 0.54 µM (≈ 0.499 µg/mL)
- MIC Scedosporium apiospermum 1-003-056 [3]: 0.50 µg/mL (≈ 0.541 µM)
- MIC [4]: 0.54 µM (≈ 0.499 µg/mL)
- MIC Aspergillus fumigatus ATCC 204 305 [4]: 0.50 µg/mL (≈ 0.541 µM)
- MIC [5]: 1.1 µM (≈ 1.02 µg/mL)
- MIC Aspergillus terreus ATCC 03-232-378 [5]: 1.0 µg/mL (≈ 1.08 µM)
- MIC [6]: 0.54 µM (≈ 0.499 µg/mL)
- MIC Aspergillus flavus ATCC 204 304 [6]: 0.50 µg/mL (≈ 0.541 µM)
- MIC [7]: 4.3 µM (≈ 3.97 µg/mL)
- MIC Scedosporium prolificans 1-003-040 [7]: 4.0 µg/mL (≈ 4.33 µM)
- MIC [8]: 0.27 µM (≈ 0.25 µg/mL)
- MIC Fusarium solani 04-132-4207 [8]: 0.25 µg/mL (≈ 0.271 µM)
- MIC [9]: 0.54 µM (≈ 0.499 µg/mL)
- MIC Cryptococcus neoformans ATCC 90112 [9]: 0.50 µg/mL (≈ 0.541 µM)
- MIC [10]: 0.54 µM (≈ 0.499 µg/mL)
- MIC Candida albicans ATCC 10231 [10]: 0.50 µg/mL (≈ 0.541 µM)
